Source: patent US5716982A, “Retinoids and methods of use of same” (priority 1995, dated 1998)
Like-named read-outs stand apart in the source and are kept apart here. Blank lines part the entries; values can stand above or below the molecule they belong to.

What was measured:
[1] = system: lipid peroxidation of rat liver microsome; experiment: Fe/Cys induced lipid peroxidation of rat liver microsome (anti-oxidation); assay type: biochemical; settings: n = 3
Method: Lipid peroxidation was induced by adding 1 mM FeSO4 and 10 mM cysteine to the microsome fraction of rat liver with the incubations being carried out at 37° C. for 30 minutes in a reaction mixture containing 10 mM phosphate buffer (pH 7.4). The reaction was terminated by the addition of 0.3 ml of 20% trichloroacetic acid solution. Thiobarbituric acid was then added and the mixture was boiled for 10 minutes. After cooling the test tubes under running tap water, the optical density at 532 nm was measured. Lipid peroxidation in both the treated groups and the control group was expressed in nmol MDA/mg protein. The percentage inhibition indicates the anti-oxidation properties of the coumarin retinoids tested.

[2] = system: HL-60 cells; experiment: MTT assay in HL-60 cells; assay type: cell-based, human; settings: Homo sapiens, MTT
Method: (§1) Human cancer cell lines (KB, A2780, MCF-7, HL-60, A549) were used. For a monolayer culture, 0.5 ml of trypsin solution ([…]) was added to the flasks for digestion. Microtiter plates (96 well) were used for the cell culture and 200 μl of cell suspension (1200 tumor cells) were placed in each well and incubated at 37° C. for 24 hours. Following the addition of the test compound, the control and treated flasks were placed in a CO2 incubator for 5 day culture. For the MTT assay, 200 μl of MTT solution (5 mg in 10 ml of phosphate buffer) plus the medium were added and incubated for another 4 hours. Following incubation, the supernatant was discarded and 200 μl of DMSO was added to each well. With a mild agitation the OD values were determined by the MR 700 Elisa at 570 nm (reference wavelength was 450 nm). The ED50 of the compound and tumor cell survival rate [formula] as percent inhibition were calculated.
(§2) The protocols of Examples 14 and 21 were used, for the NBT and MTT assays, respectively.

[3] = system: Human promyelocytic leukemia HL-60 cells; experiment: Cell differentiation of HL-60 cells, nitroblue tetrazolium (NBT) reduction; assay type: cell-based; settings: Homo sapiens
Method: Human promyelocytic leukemia HL-60 cells were cultured in RPMI-1640 medium supplemented by 10% heat-inactivated calf serum and 100 U/ml of penicillin plus 100 μg/ml of streptomycin. The flasks containing cells and medium were incubated in an incubator with 5% CO2 at 37° C. Log phase cells were seeded into the medium at a concentration of 1.2×10^5to 1.4×10^5 cells per ml and cultured in flasks containing 5 ml of medium. Each group consisted of three flasks. Different concentrations of coumarin-retinoids were added. At intervals following the addition of coumarin-retinoids to the cultures, a small portion of cells was removed and live cells were counted under a light microscope using a dye-exclusionmethod with trypan blue. Cell differentiation was judged in terms of morphology and nitroblue tetrazolium (NBT) reduction.
For a determination of NBT reducing activity, a portion of the coumarin-retinoid-treated cells was removed at intervals following treatment and centrifuged. After centrifugation, 0.5 ml of 0.1% NBT (containing 100 ng TPA) was added to each tube. The contents of the test tubes were then incubated for 1 hour at 37° C. Cell smears were prepared from the cell sediment and stained using the Wright-Giemsa technique. For each smear prepared, 200 cells were isolated for examination under a light microscope with an oil immersion lens. Cells stained with blue-black granules were considered NBT-positive cells. The 50% differentiation or effective concentration (ED50 or EC50) is shown in terms of molar (M) concentration of the […] tested.
as §2

[4] = system: bone abnormalities in mouse fetus; experiment: Bone abnormalities in mouse fetus (anti-teratogenicity); assay type: in vivo
Method: (§3) Female mice were examined by vaginal smear the morning after being caged with male mice, and if sperm or a vaginal plug was discovered, then the mice were determined to be pregnant. The retinoids were administered at the dosage indicated starting on the seventh day of pregnancy and continued once a day for the next ten days. On the 20th day after the female mice were determined to be pregnant, they were sacrificed by cervical dislocation. Both sides of the uterus were checked and the number of living embryos, dead embryos, and absorbed embryos were counted. The living embryos were further examined for bone abnormalities.
After the embryos became transparent, they were dissected and their skeletons were checked by observation under a microscope.

[5] = system: chondrosarcoma in rats; experiment: Growth of transplanted chondrosarcoma in rats; assay type: in vivo, rat
Excerpt: Transplantable chondrosarcomas obtained from Dr. Trown, Hoffman--La Roche Institute of Molecular Biology and Wistar rats obtained from the Breeding Center of Experimental Animals, Chinese Academy of Medical Sciences were used. According to the routine transplantation protocol as described in Cancer Treatment Reports 60(11):1647-1653 (1976) where the small pieces of chondrosarcoma tumor were implanted subcutaneously in the right inguinal region of rats using a trocar. Tumor-bearing rats were randomized to a control group and a treated group. Each group consisted of ten rats. The compound was given orally for 12 days at the indicated dosage. Sixty days after transplantation, the rats were sacrificed and the tumor weight was determined. The inhibition rate was calculated according to the following formula: [formula]

[6] = system: fetus absorption in mice; experiment: Fetus absorption in mice (anti-teratogenicity); assay type: in vivo, mouse
Method: as §3

[7] = system: A2780 cell line; experiment: MTT assay in A2780 cells; assay type: cell-based; settings: Homo sapiens, A2780, 120 h; read-out: MTT ED50
Method: as §1, §2

[8] = system: BEL 7402 cell line; experiment: MTT assay in BEL 7402 cells; assay type: cell-based; settings: Homo sapiens, Bel-7402, 120 h; Bel7402; read-out: MTT ED50
[9] = system: HCT-8 cell line; experiment: MTT assay in HCT-8 cells; assay type: cell-based; settings: Homo sapiens, HCT-8, 120 h; read-out: MTT ED50
[10] = system: KB cell line; experiment: MTT assay in KB cells; assay type: cell-based; settings: Homo sapiens, 120 h, read-out: MTT ED50
Method: as §1, §2

[11] = system: Ornithine decarboxylase (ODC); experiment: Croton oil induced ornithine decarboxylase (ODC) activity in mouse epidermis; assay type: in vivo; settings: single dose pretreatment, FIG. 1 (x±SD, n=3)
Method: ICR mice (6-8 weeks old) were pretreated with a single dose of coumarin retinoid. On the third day, the animals received a topical application of 0.2 ml of 1% croton oil in acetone. All animals were sacrificed five hours after the croton oil treatment and the epidermis was separated by a brief heat treatment at 52° C. for 30 seconds and minced in a blender. The cell suspension and broth were separated by a centrifugation at 30,000×g for 30 seconds and the supernatant was obtained. Ornithine decarboxylase (ODC) enzyme activity was determined by measuring the release of CO2 from L-(^14 C)-ornithine and expressed as nmole CO2 /30 min/mg protein and the results for coumarin retinoid I-10 and I-6 are shown in FIG. 1. […] ODC activity is a critical parameter for monitoring cancer chemoprevention or promotion.

[12] = system: human acute myeloid leukemia (AML), neuroblastoma, teratocarcinoma, melanoma, and rat rhabdomyosarcoma cells; settings: Smith et al. 1992; cited from earlier work
[13] = Preuss-Ueberschar et al. 1984; cited from earlier work
[14] = system: Salmonella typhimurium strain TA100; experiment: Anti-mutagenicity (Ames), MMS-induced his+ revertants, TA100; assay type: cell-based; settings: MMS 0.5 μl/plate; for his+ -revertants/per plate, TA100: n = 3
Method: (§4) An antimutagenicity assay was conducted according to the method developed by Ames et al. using Salmonella typhimurium strains TA 102 and TA 100 and mammalian microsomal enzymes. Beta-naphthoflavone and phenobarbital-induced rat liver supernatant (9000×g S-9 fraction) was used as the enzyme source for metabolic activation. The night before the experiment, certified bacterial solution (assessed for its biological characteristics and donated by Professor Ames) was inoculated into petri dishes. The petri dishes were then incubated for 15 hours at 37° C. From each petri dish, 0.1 ml of the bacterial solution was removed and added to sterile test tubes. To these test tubes, 0.1 ml of different concentrations of coumarin retinoids and 0.5 ml of either S-9 mixed solution or phosphate buffer were then added. The final solution for each test tube was incubated in a water bath at 37° C. for 20 minutes before adding 2 ml of agar solution. After thorough mixing, the solution was transferred into petri dishes and incubated once again at 37° C. for 48 hours. After incubation, the number of colonies in each petri dish were counted. The revertant numbers of the bacteria in control and treated groups were compared and the inhibition rate was calculated.

[15] = system: Salmonella typhimurium strain TA102; experiment: Anti-mutagenicity (Ames), MMS-induced his+ revertants, TA102; assay type: cell-based; settings: MMS 0.5 μl/plate; for his+ -revertants/per plate, TA102: n = 3
Method: as §4

[16] = system: melanoma cell growth; settings: Jing et al. 1992; cited from earlier work
[17] = NBT reduction, 50% differentiation, HL-60 (Table 2), read-out: EC50
[18] = HL-60 (Table 16), read-out: NBT

- IC50 ([2]; 120 h, HL-60 (Table 12), read-out: ED50 (the source's name)): 8.5 µM
- EC50 [3, 17]: 0.28 µM
SMILES: CC(=O)c1cc2ccc(OC(=O)/C=C(C)/C=C/C=C(C)/C=C/C3=C(C)CCCC3(C)C)c(C(=O)O)c2oc1=O [Compound I-5]
- Lipid Peroxidation ([1]; 1 μM): 2.19 ± 0.13 μM MDA/mg protein
- inhibition at 10 µM ([2]; 10^-5 M, HL-60): 51.6%
- inhibition at 1 µM ([2]; 10^-6 M, HL-60): 34 ± 7.1%
- inhibition at 0.1 µM ([2]; 10^-7 M, HL-60): 11.5 ± 4.2%

SMILES: CC1=C(/C=C/C(C)=C/C=C/C(C)=C/C(=O)Nc2ncnc3c2ncn3C(=O)/C=C(C)/C=C/C=C(C)/C=C/C2=C(C)CCCC2(C)C)C(C)(C)CCC1 [II-A]
- Cleft Palate (%) ([4]; 20 mg/kg): 0%
- Delayed Calcification (%), Occipital ([4]; 20 mg/kg): 7.6%
- Delayed Calcification (%), Sternum ([4]; 20 mg/kg): 9.0%
- Cleft Palate (%) ([4]; 40 mg/kg): 0%
- Delayed Calcification (%), Occipital ([4]; 40 mg/kg): 7.2%
- Delayed Calcification (%), Sternum ([4]; 40 mg/kg): 7.2%
- Inhibition rate (%) ([5]; 2 mg/kg ×10): 49.5%
- Tumor Weight ([5]; 2 mg/kg ×10): 5.4 grams
- Animals, final ([5]; 2 mg/kg ×10, 10 animals initial): 9
- Animals, final ([5]; 5 mg/kg ×10, 10 animals initial): 9
- Implanted Number ([6]; 20 mg/kg, 12 pregnant mice): 141
- Absorbed Number ([6]; 20 mg/kg, 12 pregnant mice, 141 implanted): 10
- Implanted Number ([6]; 40 mg/kg, 15 pregnant mice): 181
- Absorbed Number ([6]; 40 mg/kg, 15 pregnant mice, 181 implanted): 17

- IC50 [7]: > 10 µM
- IC50 [9]: > 10 µM
- IC50 [10]: > 10 µM
- EC50 [3, 18]: > 10 µM
SMILES: CC1=C(/C=C/C(C)=C/C=C/C(C)=C/C(=O)n2cnc3c(=O)[nH]c(N)nc32)C(C)(C)CCC1 [II-F]
- IC50 [8]: > 10 µM

SMILES: CC(=O)c1cc2c(OC(=O)/C=C(C)/C=C/C=C(C)/C=C/C3=C(C)CCCC3(C)C)cc(OC(=O)/C=C(C)/C=C/C=C(C)/C=C/C3=C(C)CCCC3(C)C)cc2oc1=O [Compound I-10]
- Delayed Calcification, Occipital delay/fetus ([4]; 20 mg/kg): 22/66
- Delayed Calcification, Sternum delay/fetus ([4]; 20 mg/kg): 14/66
- Delayed Calcification, Occipital delay/fetus ([4]; 40 mg/kg): 15/81
- Delayed Calcification, Sternum delay/fetus ([4]; 40 mg/kg): 21/81
- Animals, final ([5]; 5 mg/kg p.o., 12 days, 10 animals initial): 10
- Inhibition rate (%) ([5]; 10 mg/kg p.o.): 9.8%
- Animals, final ([5]; 10 mg/kg p.o., 12 days, 10 animals initial): 9
- Animals, final ([5]; 20 mg/kg p.o., 12 days, 10 animals initial): 9
- Inhibition rate (%) ([5]; 20 mg/kg p.o., P < 0.05): 42.2%
- EC50 [3, 17]: 0.013 µM
- inhibition of croton oil induced ODC activity [11]: significantly inhibited the ODC activity induced by croton oil

SMILES: CC1=C(/C=C/C(C)=C/C=C/C(C)=C/C(=O)O)C(C)(C)CCC1 [All Trans RA, all-trans-retinoic acid, reference compound]
- Delayed Calcification, Occipital number/fetus number ([4]; 10 mg/kg): 16/16
- Delayed Calcification, Sternum number/fetus number ([4]; 10 mg/kg): 16/16
- Cleft Palate (%) ([4]; 15 mg/kg): 48%
- Delayed Calcification (%), Occipital ([4]; 15 mg/kg): 96.0%
- Delayed Calcification (%), Sternum ([4]; 15 mg/kg): 71.0%
- Delayed Calcification, Occipital delay/fetus ([4]; 101 mg/kg (so in the source)): 6/16
- Delayed Calcification, Sternum delay/fetus ([4]; 101 mg/kg (so in the source)): 16/16
- Implanted Number ([6]; 15 mg/kg, 15 pregnant mice): 186
- cell differentiation [12]: induces cell differentiation in some human acute myeloid leukemia (AML), neuroblastoma, teratocarcinoma, melanoma, and rat rhabdomyosarcoma cells

- IC50 [7]: > 10 µM
- IC50 [9]: 4 µM
- IC50 [10]: > 10 µM
- EC50 [3, 18]: > 10 µM
SMILES: CC1=C(/C=C/C(C)=C/C=C/C(C)=C/C(=O)Nc2nc3c(ncn3C(=O)/C=C(C)/C=C/C=C(C)/C=C/C3=C(C)CCCC3(C)C)c(=O)[nH]2)C(C)(C)CCC1 [II-D]
- IC50 [8]: 5 µM

SMILES: O=c1ccc2ccccc2o1 [coumarin]
- teratogenicity [13]: not teratogenic

SMILES: CC(=O)c1cc2cc(Cl)c(OC(=O)/C=C(C)/C=C/C=C(C)/C=C/C3=C(C)CCCC3(C)C)cc2oc1=O [Compound I-6]
- Lipid Peroxidation ([1]; 2 μM): 2.16 ± 0.18 μM MDA/mg protein
- Lipid Peroxidation ([1]; 20 μM): 2.13 ± 0.19 μM MDA/mg protein
- Inhibition (%), TA100 ([14]; 0.1 mg/plate): 12.8%
- his+ -revertants/per plate, TA100 ([14]; 0.1 mg/plate): 971.3 ± 102.7 revertants/per plate
- Inhibition (%), TA100 ([14]; 0.5 mg/plate): 15.5%
- his+ -revertants/per plate, TA100 ([14]; 0.5 mg/plate): 947.3 ± 60.3 revertants/per plate
- EC50 [3, 17]: 0.6 µM
- Inhibition (%), TA102 ([15]; 0.1 mg/plate): 13.8%
- his+ -revertants/per plate, TA102 ([15]; 0.1 mg/plate): 1560 ± 40.0 revertants/per plate
- Inhibition (%), TA102 ([15]; 0.5 mg/plate): 26.6%
- his+ -revertants/per plate, TA102 ([15]; 0.5 mg/plate): 1375 ± 241.5 revertants/per plate
- inhibition of croton oil induced ODC activity [11]: significantly inhibited the ODC activity induced by croton oil

SMILES: O=c1c(-c2ccc(O)cc2)coc2cc(O)ccc12 [diadzein]
- melanoma cell growth [16]: inhibits melanoma cell growth
